Experimental data reported in ChEMBL document CHEMBL3797178, “Synthesis, antimycobacterial and antibacterial activity of 1-(6-amino-3,5-difluoropyridin-2-yl)fluoroquinolone derivatives containing an oxime functional moiety” (2016).
In brackets after ≈: the same amount, converted by molar mass.

Tests used:
Type in all cases: functional
[1] = tested on: Staphylococcus epidermidis; experiment: Antibacterial activity against methicillin-sensitive Staphylococcus epidermidis 14-6 after 18 to 24 hrs by CLSI M100-S11 method
Enterococcus faecalis [2] = experiment: Antibacterial activity against Enterococcus faecalis 14-1 after 18 to 24 hrs by CLSI M100-S11 method
Klebsiella pneumoniae [3] = experiment: Antibacterial activity against extended-spectrum beta-lactamase-producing Klebsiella pneumoniae 14-17 after 18 to 24 hrs by CLSI M100-S11 method
Escherichia coli [4] = experiment: Antibacterial activity against Escherichia coli ATCC 25922 after 18 to 24 hrs by CLSI M100-S11 method
Staphylococcus aureus [5] = experiment: Antibacterial activity against methicillin-sensitive Staphylococcus aureus 14-3 after 18 to 24 hrs by CLSI M100-S11 method
Escherichia coli [6] = experiment: Antibacterial activity against extended-spectrum beta-lactamase-producing Escherichia coli 14-1 after 18 to 24 hrs by CLSI M100-S11 method
Klebsiella pneumoniae [7] = experiment: Antibacterial activity against extended-spectrum beta-lactamase-producing Klebsiella pneumoniae 14-18 after 18 to 24 hrs by CLSI M100-S11 method
Pseudomonas aeruginosa [8] = experiment: Antibacterial activity against Pseudomonas aeruginosa ATCC 27853 after 18 to 24 hrs by CLSI M100-S11 method
Klebsiella pneumoniae [9] = experiment: Antibacterial activity against Klebsiella pneumoniae 14-2 after 18 to 24 hrs by CLSI M100-S11 method
Pseudomonas aeruginosa [10] = experiment: Antibacterial activity against Pseudomonas aeruginosa 14-9 after 18 to 24 hrs by CLSI M100-S11 method
Pseudomonas aeruginosa [11] = experiment: Antibacterial activity against Pseudomonas aeruginosa 14-19 after 18 to 24 hrs by CLSI M100-S11 method
Klebsiella pneumoniae [12] = experiment: Antibacterial activity against Klebsiella pneumoniae 14-4 after 18 to 24 hrs by CLSI M100-S11 method
Enterococcus faecium [13] = experiment: Antibacterial activity against Enterococcus faecium 14-2 after 18 to 24 hrs by CLSI M100-S11 method
[14] = tested on: Mycobacterium tuberculosis; experiment: Antimycobacterial activity against Mycobacterium tuberculosis H37Rv ATCC 27294 after 3 days by microplate Alamar Blue assay; settings: H37Rv ATCC 27294, 72 h
Staphylococcus aureus [15] = experiment: Antibacterial activity against methicillin-resistant Staphylococcus aureus 14-4 after 18 to 24 hrs by CLSI M100-S11 method
[16] = tested on: Staphylococcus epidermidis; experiment: Antibacterial activity against methicillin-sensitive Staphylococcus epidermidis 14-4 after 18 to 24 hrs by CLSI M100-S11 method
Escherichia coli [17] = experiment: Antibacterial activity against extended-spectrum beta-lactamase-producing Escherichia coli 14-2 after 18 to 24 hrs by CLSI M100-S11 method
Klebsiella pneumoniae [18] = experiment: Antibacterial activity against Klebsiella pneumoniae 14-3 after 18 to 24 hrs by CLSI M100-S11 method
Pseudomonas aeruginosa [19] = experiment: Antibacterial activity against Pseudomonas aeruginosa 14-15 after 18 to 24 hrs by CLSI M100-S11 method
Staphylococcus aureus [20] = experiment: Antibacterial activity against methicillin-sensitive Staphylococcus aureus 14-4 after 18 to 24 hrs by CLSI M100-S11 method
[21] = tested on: Staphylococcus epidermidis; experiment: Antibacterial activity against methicillin-resistant Staphylococcus epidermidis 14-22 after 18 to 24 hrs by CLSI M100-S11 method
Enterococcus faecalis [22] = experiment: Antibacterial activity against Enterococcus faecalis 14-2 after 18 to 24 hrs by CLSI M100-S11 method
Streptococcus pneumoniae = experiment: Antibacterial activity against Streptococcus pneumoniae ATCC 19615 after 18 to 24 hrs by CLSI M100-S11 method
Pseudomonas aeruginosa [23] = experiment: Antibacterial activity against Pseudomonas aeruginosa 14-14 after 18 to 24 hrs by CLSI M100-S11 method
Enterococcus faecalis [24] = experiment: Antibacterial activity against Enterococcus faecalis 14-3 after 18 to 24 hrs by CLSI M100-S11 method
[25] = tested on: Staphylococcus epidermidis; experiment: Antibacterial activity against methicillin-sensitive Staphylococcus epidermidis 14-2 after 18 to 24 hrs by CLSI M100-S11 method
Escherichia coli [26] = experiment: Antibacterial activity against Escherichia coli 14-2 after 18 to 24 hrs by CLSI M100-S11 method
Staphylococcus aureus [27] = experiment: Antibacterial activity against methicillin-resistant Staphylococcus aureus 14-5 after 18 to 24 hrs by CLSI M100-S11 method
[28] = tested on: Staphylococcus epidermidis; experiment: Antibacterial activity against methicillin-resistant Staphylococcus epidermidis 14-37 after 18 to 24 hrs by CLSI M100-S11 method
Staphylococcus aureus [29] = experiment: Antibacterial activity against Staphylococcus aureus CMCC 26003 after 18 to 24 hrs by CLSI M100-S11 method
Pseudomonas aeruginosa [30] = experiment: Antibacterial activity against Pseudomonas aeruginosa 14-16 after 18 to 24 hrs by CLSI M100-S11 method
Klebsiella pneumoniae [31] = experiment: Antibacterial activity against extended-spectrum beta-lactamase-producing Klebsiella pneumoniae 14-19 after 18 to 24 hrs by CLSI M100-S11 method
Staphylococcus aureus [32] = experiment: Antibacterial activity against methicillin-sensitive Staphylococcus aureus 14-2 after 18 to 24 hrs by CLSI M100-S11 method
Klebsiella pneumoniae [33] = experiment: Antibacterial activity against Klebsiella pneumoniae 14-1 after 18 to 24 hrs by CLSI M100-S11 method
Enterococcus faecium [34] = experiment: Antibacterial activity against Enterococcus faecium 14-1 after 18 to 24 hrs by CLSI M100-S11 method
Escherichia coli [35] = experiment: Antibacterial activity against Escherichia coli 14-1 after 18 to 24 hrs by CLSI M100-S11 method

CO/N=C1\CCN(c2nc3c(cc2F)c(=O)c(C(=O)O)cn3-c2nc(N)c(F)cc2F)CC1O (configuration not stated)
MIC [1]: > 128 µg/mL
MIC (Enterococcus faecalis [2]): > 128 µg/mL
MIC (Klebsiella pneumoniae [3]): > 128 µg/mL
MIC (Escherichia coli [4]): 64 µg/mL (≈ 134 µM)
MIC (Staphylococcus aureus [5]): 4 µg/mL (≈ 8.36 µM)
MIC (Escherichia coli [6]): 64 µg/mL (≈ 134 µM)
MIC (Klebsiella pneumoniae [7]): > 128 µg/mL
MIC (Pseudomonas aeruginosa [8]): 128 µg/mL (≈ 268 µM)
MIC (Klebsiella pneumoniae [9]): > 128 µg/mL
MIC (Pseudomonas aeruginosa [10]): 128 µg/mL (≈ 268 µM)
MIC (Pseudomonas aeruginosa [11]): 128 µg/mL (≈ 268 µM)
MIC (Klebsiella pneumoniae [12]): > 128 µg/mL
MIC (Enterococcus faecium [13]): 64 µg/mL (≈ 134 µM)
MIC [14]: 30.7 µg/mL (≈ 64.3 µM)
MIC (Staphylococcus aureus [15]): > 128 µg/mL
MIC [16]: > 128 µg/mL
MIC (Escherichia coli [17]): > 128 µg/mL
MIC (Klebsiella pneumoniae [18]): > 128 µg/mL
MIC (Pseudomonas aeruginosa [19]): 128 µg/mL (≈ 268 µM)
MIC (Staphylococcus aureus [20]): 4 µg/mL (≈ 8.36 µM)
MIC [21]: > 128 µg/mL
MIC (Enterococcus faecalis [22]): > 128 µg/mL
MIC (Streptococcus pneumoniae): 64 µg/mL (≈ 134 µM)
MIC (Pseudomonas aeruginosa [23]): 128 µg/mL (≈ 268 µM)
MIC (Enterococcus faecalis [24]): > 128 µg/mL
MIC [25]: > 128 µg/mL
MIC (Escherichia coli [26]): > 128 µg/mL
MIC (Staphylococcus aureus [27]): 128 µg/mL (≈ 268 µM)
MIC [28]: > 128 µg/mL
MIC (Staphylococcus aureus [29]): 2 µg/mL (≈ 4.18 µM)
MIC (Pseudomonas aeruginosa [30]): 128 µg/mL (≈ 268 µM)
MIC (Klebsiella pneumoniae [31]): > 128 µg/mL
MIC (Staphylococcus aureus [32]): 2 µg/mL (≈ 4.18 µM)
MIC (Klebsiella pneumoniae [33]): > 128 µg/mL
MIC (Enterococcus faecium [34]): > 128 µg/mL
MIC (Escherichia coli [35]): > 128 µg/mL

Nc1nc(-n2cc(C(=O)O)c(=O)c3cc(F)c(N4CC/C(=N\OCc5ccccc5)C(N)C4)nc32)c(F)cc1F (configuration not stated)
MIC [1]: > 128 µg/mL
MIC (Enterococcus faecalis [2]): 128 µg/mL (≈ 231 µM)
MIC (Klebsiella pneumoniae [3]): > 128 µg/mL
MIC (Escherichia coli [4]): 64 µg/mL (≈ 116 µM)
MIC (Staphylococcus aureus [5]): 4 µg/mL (≈ 7.23 µM)
MIC (Escherichia coli [6]): 128 µg/mL (≈ 231 µM)
MIC (Klebsiella pneumoniae [7]): > 128 µg/mL
MIC (Pseudomonas aeruginosa [8]): 128 µg/mL (≈ 231 µM)
MIC (Klebsiella pneumoniae [9]): > 128 µg/mL
MIC (Pseudomonas aeruginosa [10]): 128 µg/mL (≈ 231 µM)
MIC (Pseudomonas aeruginosa [11]): 128 µg/mL (≈ 231 µM)
MIC (Klebsiella pneumoniae [12]): > 128 µg/mL
MIC (Enterococcus faecium [13]): 64 µg/mL (≈ 116 µM)
MIC [14]: > 32 µg/mL
MIC (Staphylococcus aureus [15]): > 128 µg/mL
MIC [16]: > 128 µg/mL
MIC (Escherichia coli [17]): > 128 µg/mL
MIC (Klebsiella pneumoniae [18]): > 128 µg/mL
MIC (Pseudomonas aeruginosa [19]): 128 µg/mL (≈ 231 µM)
MIC (Staphylococcus aureus [20]): 8 µg/mL (≈ 14.5 µM)
MIC [21]: > 128 µg/mL
MIC (Enterococcus faecalis [22]): 128 µg/mL (≈ 231 µM)
MIC (Streptococcus pneumoniae): 64 µg/mL (≈ 116 µM)
MIC (Pseudomonas aeruginosa [23]): 128 µg/mL (≈ 231 µM)
MIC (Enterococcus faecalis [24]): > 128 µg/mL
MIC [25]: > 128 µg/mL
MIC (Escherichia coli [26]): > 128 µg/mL
MIC (Staphylococcus aureus [27]): > 128 µg/mL
MIC [28]: > 128 µg/mL
MIC (Staphylococcus aureus [29]): 8 µg/mL (≈ 14.5 µM)
MIC (Pseudomonas aeruginosa [30]): 128 µg/mL (≈ 231 µM)
MIC (Klebsiella pneumoniae [31]): > 128 µg/mL
MIC (Staphylococcus aureus [32]): 8 µg/mL (≈ 14.5 µM)
MIC (Klebsiella pneumoniae [33]): > 128 µg/mL
MIC (Enterococcus faecium [34]): > 128 µg/mL
MIC (Escherichia coli [35]): > 128 µg/mL
